# Test system: MV-4-11 cells
# Assay: Gene expression microarray analysis (Affymetrix PrimeView) and GSEA
# Format: cell-based, human
# Parameters: RFU PODN (11730768_x_at) / Fold change /veh PODN (11730768_x_at) / RFU LINC00158 (11744669_a_at) / Fold change /veh LINC00158 (11744669_a_at) / RFU DUSP10 (11751237_a_at) / Fold change /veh DUSP10 (11751237_a_at) / RFU ID3 (11757404_x_at) / Fold change /veh ID3 (11757404_x_at) / RFU PLEKHG5 (11737974_s_at) / Fold change /veh PLEKHG5 (11737974_s_at) / RFU LRRC4B (11730491_at) / Fold change /veh LRRC4B (11730491_at) / RFU GIMAP4 (11747438_a_at) / Fold change /veh GIMAP4 (11747438_a_at) / RFU KRT8 (11758183_x_at) / Fold change /veh KRT8 (11758183_x_at) / RFU CNN1 (11734310_a_at) / Fold change /veh CNN1 (11734310_a_at) / RFU VPS37D (11726825_at) / Fold change /veh VPS37D (11726825_at) / RFU C10orf10 (11716522_x_at) / Fold change /veh C10orf10 (11716522_x_at) / RFU KIR2DL2 /// KIR2DL4 /// KIR2DL5A /// KIR2DL5B /// KIR2DS1 /// KIR2DS2 /// KIR2DS3 /// KIR2DS4 /// KIR3DL3 /// KIR3DL3 /// KIR3DS1 (11738374_at) / Fold change /veh KIR2DL2 /// KIR2DL4 /// KIR2DL5A /// KIR2DL5B /// KIR2DS1 /// KIR2DS2 /// KIR2DS3 /// KIR2DS4 /// KIR3DL3 /// KIR3DL3 /// KIR3DS1 (11738374_at) / RFU C1QL1 (11718748_at) / Fold change /veh C1QL1 (11718748_at) / RFU TMPRSS4 (11747572_a_at) / Fold change /veh TMPRSS4 (11747572_a_at) / RFU HAMP (11756126_x_at) / Fold change /veh HAMP (11756126_x_at) / RFU RNFT2 (11725882_a_at) / Fold change /veh RNFT2 (11725882_a_at) / RFU NR4A2 (11747474_a_at) / Fold change /veh NR4A2 (11747474_a_at) / RFU ABCC12 (11746883_a_at) / Fold change /veh ABCC12 (11746883_a_at) / RFU TMEM136 (11760407_x_at) / Fold change /veh TMEM136 (11760407_x_at) / RFU CLDN22 /// WWC2 (11732394_at) / Fold change /veh CLDN22 /// WWC2 (11732394_at) / RFU HLA-DPB1 (11760878_x_at) / Fold change /veh HLA-DPB1 (11760878_x_at) / RFU SPINT1 (11716480_a_at) / Fold change /veh SPINT1 (11716480_a_at) / RFU GAP43 (11754022_s_at) / Fold change /veh GAP43 (11754022_s_at) / RFU A4GNT (11735810_at) / Fold change /veh A4GNT (11735810_at) / RFU PRB3 (11715151_x_at) / Fold change /veh PRB3 (11715151_x_at) / RFU TUBB4B (11761932_at) / Fold change /veh TUBB4B (11761932_at) / RFU CAPN14 (11732068_a_at) / Fold change /veh CAPN14 (11732068_a_at) / RFU TMCC2 (11721928_a_at) / Fold change /veh TMCC2 (11721928_a_at) / RFU IRGQ (11745062_a_at) / Fold change /veh IRGQ (11745062_a_at) / RFU FAM174B (11720279_a_at) / Fold change /veh FAM174B (11720279_a_at) / RFU TMPRSS4 (11748680_a_at) / Fold change /veh TMPRSS4 (11748680_a_at) / RFU FAM212B (11763350_a_at) / Fold change /veh FAM212B (11763350_a_at) / RFU PLEKHG5 (11743358_a_at) / Fold change /veh PLEKHG5 (11743358_a_at) / RFU ZSCAN30 (11745921_a_at) / Fold change /veh ZSCAN30 (11745921_a_at) / RFU CMKLR1 (11741424_a_at) / Fold change /veh CMKLR1 (11741424_a_at) / RFU LOC101060620 /// MAPK8IP1 (11723275_at) / Fold change /veh LOC101060620 /// MAPK8IP1 (11723275_at) / RFU SPTSSB (11747773_x_at) / Fold change /veh SPTSSB (11747773_x_at) / RFU PRSS12 (11739890_at) / Fold change /veh PRSS12 (11739890_at) / RFU BIN1 (11741810_x_at) / Fold change /veh BIN1 (11741810_x_at) / RFU WNT11 (11732464_a_at) / Fold change /veh WNT11 (11732464_a_at) / RFU C10orf10 (11716521_a_at) / Fold change /veh C10orf10 (11716521_a_at) / RFU C5orf56 (11738089_at) / Fold change /veh C5orf56 (11738089_at) / RFU CYB561 (11721691_x_at) / Fold change /veh CYB561 (11721691_x_at) / RFU ANKRD19P (11752326_a_at) / Fold change /veh ANKRD19P (11752326_a_at) / RFU OR2T12 /// OR2T33 /// OR2T8 (11738714_s_at) / Fold change /veh OR2T12 /// OR2T33 /// OR2T8 (11738714_s_at) / RFU VCAN (11748164_a_at) / Fold change /veh VCAN (11748164_a_at) / RFU JSRP1 (11732532_at) / Fold change /veh JSRP1 (11732532_at) / RFU KRTAP10-11 (11738290_x_at) / Fold change /veh KRTAP10-11 (11738290_x_at) / RFU MYO3A (11730013_a_at) / Fold change /veh MYO3A (11730013_a_at) / RFU EBF3 (11725865_a_at) / Fold change /veh EBF3 (11725865_a_at) / RFU CAMK2N1 (11719241_x_at) / Fold change /veh CAMK2N1 (11719241_x_at) / RFU C5orf56 (11738088_a_at) / Fold change /veh C5orf56 (11738088_a_at) / RFU OLFML3 (11715873_a_at) / Fold change /veh OLFML3 (11715873_a_at) / RFU LOC100653217 /// NTM (11731650_a_at) / Fold change /veh LOC100653217 /// NTM (11731650_a_at) / RFU MAPK11 (11762145_a_at) / Fold change /veh MAPK11 (11762145_a_at) / RFU FIZ1 (11724087_x_at) / Fold change /veh FIZ1 (11724087_x_at) / RFU OASL (11726364_x_at) / Fold change /veh OASL (11726364_x_at) / RFU SOX15 (11748057_x_at) / Fold change /veh SOX15 (11748057_x_at) / RFU CD79A (11719716_a_at) / Fold change /veh CD79A (11719716_a_at) / RFU HIST1H1D (11736915_at) / Fold change /veh HIST1H1D (11736915_at) / RFU CASKIN2 (11723855_a_at) / Fold change /veh CASKIN2 (11723855_a_at) / RFU LOC730098 (11760151_x_at) / Fold change /veh LOC730098 (11760151_x_at) / RFU OR4N2 (11742367_at) / Fold change /veh OR4N2 (11742367_at) / RFU PRRT2 (11749266_a_at) / Fold change /veh PRRT2 (11749266_a_at) / RFU SNX32 (11753110_a_at) / Fold change /veh SNX32 (11753110_a_at) / RFU CDHR5 (11726645_a_at) / Fold change /veh CDHR5 (11726645_a_at) / RFU RCAN1 (11760418_a_at) / Fold change /veh RCAN1 (11760418_a_at) / RFU FAM167A (11723789_a_at) / Fold change /veh FAM167A (11723789_a_at) / RFU FAM26E (11764081_at) / Fold change /veh FAM26E (11764081_at) / RFU ISYNA1 (11749810_s_at) / Fold change /veh ISYNA1 (11749810_s_at) / RFU ACY1 (11761880_at) / Fold change /veh ACY1 (11761880_at) / RFU 11764098_at / Fold change /veh 11764098_at / RFU SAMD14 (11745864_x_at) / Fold change /veh SAMD14 (11745864_x_at) / RFU NPB (11741838_a_at) / Fold change /veh NPB (11741838_a_at) / RFU TMPRSS6 (11731388_a_at) / Fold change /veh TMPRSS6 (11731388_a_at) / RFU KRTAP10-2 (11738614_at) / Fold change /veh KRTAP10-2 (11738614_at) / RFU ARHGAP8 /// PRR5-ARHGAP8 (11727945_x_at) / Fold change /veh ARHGAP8 /// PRR5-ARHGAP8 (11727945_x_at) / RFU KRTAP5-7 /// NADSYN1 (11734609_at) / Fold change /veh KRTAP5-7 /// NADSYN1 (11734609_at) / RFU RASL12 (11751679_a_at) / Fold change /veh RASL12 (11751679_a_at) / RFU CDKN2B (11736163_a_at) / Fold change /veh CDKN2B (11736163_a_at) / RFU PRF1 (11729649_at) / Fold change /veh PRF1 (11729649_at) / RFU, ZNF638 /// ZNF638-IT1 / Fold change vs veh, ZNF638 /// ZNF638-IT1 / RFU, PANK3 / Fold change vs veh, PANK3 / RFU, SH3YL1 / Fold change vs veh, SH3YL1 / RFU, ZEB2 / Fold change vs veh, ZEB2 / RFU, NRIP1 / Fold change vs veh, NRIP1 / RFU, PTTG1IP / Fold change vs veh, PTTG1IP / RFU, CAPN2 / Fold change vs veh, CAPN2 / RFU, MED14 / Fold change vs veh, MED14 / RFU, SNORA58 / Fold change vs veh, SNORA58 / RFU, C1orf63 / Fold change vs veh, C1orf63 / RFU, LRRFIP1 / Fold change vs veh, LRRFIP1 / RFU, NDUFAF7 / Fold change vs veh, NDUFAF7 / RFU, SLC12A2 / Fold change vs veh, SLC12A2 / RFU, IBTK / Fold change vs veh, IBTK / RFU, ESF1 / Fold change vs veh, ESF1 / Fold change vs veh, TMEM50B / RFU, TAOK1 / Fold change vs veh, TAOK1 / RFU, ACBD3 / Fold change vs veh, ACBD3 / RFU, TMA16 / Fold change vs veh, TMA16 / RFU, RWDD3 / Fold change vs veh, RWDD3 / RFU, BCAT1 / Fold change vs veh, BCAT1 / RFU, EDEM3 / Fold change vs veh, EDEM3 / RFU, TMEM33 / Fold change vs veh, TMEM33 / RFU, WDR75 / Fold change vs veh, WDR75 / RFU, AHCTF1 / Fold change vs veh, AHCTF1 / RFU, TFRC / Fold change vs veh, TFRC / RFU, ZDHHC17 / Fold change vs veh, ZDHHC17 / RFU, NOM1 / Fold change vs veh, NOM1 / RFU, ARL8B / Fold change vs veh, ARL8B / RFU, ZBTB11 / Fold change vs veh, ZBTB11 / RFU, TAMM41 / Fold change vs veh, TAMM41 / RFU, KIAA1704 /// LOC100996395 / Fold change vs veh, KIAA1704 /// LOC100996395 / RFU, ING1 / Fold change vs veh, ING1 / RFU, TRMT61B / Fold change vs veh, TRMT61B / RFU, FUBP3 / Fold change vs veh, FUBP3 / RFU, TP53 / Fold change vs veh, TP53 / RFU, TNKS2 / Fold change vs veh, TNKS2 / RFU, ZFP14 / Fold change vs veh, ZFP14 / RFU, ACTR2 / Fold change vs veh, ACTR2 / RFU, PPP3R1 / Fold change vs veh, PPP3R1 / RFU, PIK3R1 / Fold change vs veh, PIK3R1 / RFU, HNRNPA1 / Fold change vs veh, HNRNPA1 / RFU, RNF170 / Fold change vs veh, RNF170 / RFU, ZNF28 / Fold change vs veh, ZNF28 / RFU, RNGTT / Fold change vs veh, RNGTT / RFU, OGT / Fold change vs veh, OGT / RFU, BRD1 / Fold change vs veh, BRD1 / RFU, MARS / Fold change vs veh, MARS / RFU, ZNF655 / Fold change vs veh, ZNF655 / RFU, FAHD1 / Fold change vs veh, FAHD1 / RFU, BDP1 / Fold change vs veh, BDP1 / RFU, LRRCC1 / Fold change vs veh, LRRCC1 / RFU, ARID1A / Fold change vs veh, ARID1A / RFU, ZNF146 / Fold change vs veh, ZNF146 / RFU, ZNF330 / Fold change vs veh, ZNF330 / RFU, GPN3 / Fold change vs veh, GPN3 / RFU, C9orf123 / Fold change vs veh, C9orf123 / RFU, N4BP2L2 / Fold change vs veh, N4BP2L2 / RFU, ARFIP1 / Fold change vs veh, ARFIP1 / RFU, FAM179B / Fold change vs veh, FAM179B / RFU, BCL10 / Fold change vs veh, BCL10 / RFU, UHRF1BP1L / Fold change vs veh, UHRF1BP1L / RFU, BET1 / Fold change vs veh, BET1 / RFU, CNOT2 / Fold change vs veh, CNOT2 / RFU, ZNF268 / Fold change vs veh, ZNF268 / Fold change vs veh, ZNF507 / RFU, DGCR2 / Fold change vs veh, DGCR2 / RFU, WDSUB1 / Fold change vs veh, WDSUB1 / Fold change vs veh, HSP90B1 /// MIR3652 / RFU, ADSS / Fold change vs veh, ADSS / RFU, GK / Fold change vs veh, GK / RFU, ZNF148 / Fold change vs veh, ZNF148 / RFU, TAF9 / Fold change vs veh, TAF9 / RFU, SLC1A5 / Fold change vs veh, SLC1A5 / RFU, SLMO2 / Fold change vs veh, SLMO2 / RFU, ABCC4 / Fold change vs veh, ABCC4 / RFU, LOC101060439 /// RAP1B / Fold change vs veh, LOC101060439 /// RAP1B / RFU, RFX7 / Fold change vs veh, RFX7 / RFU, GTPBP10 / Fold change vs veh, GTPBP10 / RFU, CNEP1R1 / Fold change vs veh, CNEP1R1 / RFU, BIVM-ERCC5 /// ERCC5 / Fold change vs veh, BIVM-ERCC5 /// ERCC5 / RFU, ILF3 / Fold change vs veh, ILF3 / RFU 11762660_at / Fold change /veh 11762660_at / RFU VCAN (11757783_s_at) / Fold change /veh VCAN (11757783_s_at) / RFU DDX43 (11728927_at) / Fold change /veh DDX43 (11728927_at) / RFU KRT8 (11758188_x_at) / Fold change /veh KRT8 (11758188_x_at) / RFU NKD1 (11759106_at) / Fold change /veh NKD1 (11759106_at) / RFU SRD5A1 (11742802_a_at) / Fold change /veh SRD5A1 (11742802_a_at) / RFU TPSAB1 /// TPSB2 (11721975_s_at) / Fold change /veh TPSAB1 /// TPSB2 (11721975_s_at) / RFU GSTM3 (11746129_a_at) / Fold change /veh GSTM3 (11746129_a_at) / RFU IL23R (11737362_x_at) / Fold change /veh IL23R (11737362_x_at) / RFU TMEM51 (11727254_a_at) / Fold change /veh TMEM51 (11727254_a_at) / RFU PIWIL2 (11732686_x_at) / Fold change /veh PIWIL2 (11732686_x_at) / RFU ORM1 (11744905_x_at) / Fold change /veh ORM1 (11744905_x_at) / RFU CCDC152 (11743942_at) / Fold change /veh CCDC152 (11743942_at) / RFU ECM1 (11717891_a_at) / Fold change /veh ECM1 (11717891_a_at) / RFU IL23R (11748794_a_at) / Fold change /veh IL23R (11748794_a_at) / RFU TNFAIP8L3 (11732012_x_at) / Fold change /veh TNFAIP8L3 (11732012_x_at) / RFU MBOAT4 (11741988_at) / Fold change /veh MBOAT4 (11741988_at) / RFU 11764193_at / Fold change /veh 11764193_at / RFU TMEM53 (11763286_at) / Fold change /veh TMEM53 (11763286_at) / RFU MAGEB2 (11727129_at) / Fold change /veh MAGEB2 (11727129_at) / RFU TMEM200A (11744735_a_at) / Fold change /veh TMEM200A (11744735_a_at) / RFU CCDC152 (11751479_a_at) / Fold change /veh CCDC152 (11751479_a_at) / RFU FAM211A (11726209_a_at) / Fold change /veh FAM211A (11726209_a_at) / RFU RGS16 (11746705_a_at) / Fold change /veh RGS16 (11746705_a_at) / RFU VCAN (11755009_s_at) / Fold change /veh VCAN (11755009_s_at) / RFU RHOB (11743442_s_at) / Fold change /veh RHOB (11743442_s_at) / RFU RGS16 (11720943_a_at) / Fold change /veh RGS16 (11720943_a_at) / RFU RGS16 (11720944_at) / Fold change /veh RGS16 (11720944_at) / RFU, VPS4B / Fold change vs veh, VPS4B / RFU, CREB1 / Fold change vs veh, CREB1 / RFU, DNAJC13 / Fold change vs veh, DNAJC13 / RFU, GNAQ / Fold change vs veh, GNAQ / RFU, CDK5R1 / Fold change vs veh, CDK5R1 / RFU, ZRANB3 / Fold change vs veh, ZRANB3 / RFU, CUL4A / Fold change vs veh, CUL4A / RFU, CCNY / Fold change vs veh, CCNY / RFU, UFL1 / Fold change vs veh, UFL1 / RFU, COG3 / Fold change vs veh, COG3 / RFU, DIAPH2 / Fold change vs veh, DIAPH2 / RFU, SKA2 / Fold change vs veh, SKA2 / RFU, AFF3 / Fold change vs veh, AFF3 / RFU, LMF1 / Fold change vs veh, LMF1 / RFU, IPO11 / Fold change vs veh, IPO11 / RFU, DFFB / Fold change vs veh, DFFB / RFU, FOXP1 / Fold change vs veh, FOXP1 / RFU, CARD8 / Fold change vs veh, CARD8 / RFU, STRN3 / Fold change vs veh, STRN3 / RFU, ADK / Fold change vs veh, ADK / RFU, RASSF2 / Fold change vs veh, RASSF2 / RFU, WIPF1 / Fold change vs veh, WIPF1 / RFU, LARP1B / Fold change vs veh, LARP1B / RFU, RASA1 / Fold change vs veh, RASA1 / RFU, RB1 / Fold change vs veh, RB1 / RFU, PPFIA1 / Fold change vs veh, PPFIA1 / RFU, MAT2A / Fold change vs veh, MAT2A / RFU, CCT5 / Fold change vs veh, CCT5 / RFU, WDR92 / Fold change vs veh, WDR92 / RFU, CUX1 / Fold change vs veh, CUX1 / RFU, TTC7A / Fold change vs veh, TTC7A / RFU, TMEM135 / Fold change vs veh, TMEM135 / RFU, DEPTOR / Fold change vs veh, DEPTOR / RFU, CPM / Fold change vs veh, CPM / RFU, DNAJB6 / Fold change vs veh, DNAJB6 / RFU, CACNA2D3 / Fold change vs veh, CACNA2D3 / RFU, DTX4 / Fold change vs veh, DTX4 / RFU, TFCP2 / Fold change vs veh, TFCP2 / RFU, GMCL1 /// GMCL1P1 / Fold change vs veh, GMCL1 /// GMCL1P1 / RFU, AEBP2 / Fold change vs veh, AEBP2 / RFU, SNHG1 /// SNORD22 /// SNORD25 /// SNORD26 /// SNORD27 /// SNORD28 /// SNORD29 /// SNORD31 / Fold change vs veh, SNHG1 /// SNORD22 /// SNORD25 /// SNORD26 /// SNORD27 /// SNORD28 /// SNORD29 /// SNORD31 / Fold change (Aza/veh), C12orf56 (ProbeSet 11735607_a_at) / Fold change (ACY-1035/veh), C12orf56 (ProbeSet 11735607_a_at) / Fold change (Aza/veh), FGFR1OP (ProbeSet 11751329_s_at) / Fold change (ACY-1035/veh), FGFR1OP (ProbeSet 11751329_s_at) / Fold change (Aza/veh), VPS36 (ProbeSet 11739960_a_at) / Fold change (ACY-1035/veh), VPS36 (ProbeSet 11739960_a_at) / RFU SYPL1 (11715823_x_at) / Fold change /veh SYPL1 (11715823_x_at) / RFU IGFBP7 (11715501_s_at) / Fold change /veh IGFBP7 (11715501_s_at) / RFU REEP3 (11722064_at) / Fold change /veh REEP3 (11722064_at) / RFU IGLL1 (11728026_x_at) / Fold change /veh IGLL1 (11728026_x_at): dose or concentration left out as unconfirmed
# Settings: MV-4-11 cells, 48 hours
compound,measurement,value
Nc1ncn([C@@H]2O[C@H](CO)[C@@H](O)[C@H]2O)c(=O)n1 [azacitidine],Fold change /veh RNFT2 (11725882_a_at),1.12

# Reference: article PMC5218480 (PLoS ONE, 2017)
